According to patent US9309224B2 (Deciphera Pharmaceuticals, LLC, priority 2013, dated 2016):

Legend:
[1] = biological target: T1, unphosphorylated c-FMS kinase (uFMS, Seq. ID no. 1) (Homo sapiens, UniProt P07333); experiment: uFMS kinase assay (pyruvate kinase/lactate dehydrogenase coupled); format: biochemical; conditions: ATP 500 μM
T1 construct: purchased Millipore
T1 sequence (P07333 538-972): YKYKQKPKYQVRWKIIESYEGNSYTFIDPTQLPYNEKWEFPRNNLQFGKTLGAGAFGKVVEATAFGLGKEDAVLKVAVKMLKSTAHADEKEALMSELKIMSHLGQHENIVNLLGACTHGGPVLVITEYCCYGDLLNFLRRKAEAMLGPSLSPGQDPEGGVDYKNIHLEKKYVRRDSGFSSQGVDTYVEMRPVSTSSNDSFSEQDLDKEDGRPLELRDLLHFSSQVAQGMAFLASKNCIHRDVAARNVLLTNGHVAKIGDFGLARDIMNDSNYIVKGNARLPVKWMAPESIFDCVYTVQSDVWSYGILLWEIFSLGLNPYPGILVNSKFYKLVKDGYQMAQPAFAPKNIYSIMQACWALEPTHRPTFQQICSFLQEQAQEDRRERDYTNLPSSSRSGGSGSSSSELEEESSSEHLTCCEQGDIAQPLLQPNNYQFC
Protocol: In this assay, the oxidation of NADH (thus the decrease at A340 nm) was continuously monitored spectrophometrically. The reaction mixture (100 μL) contained FMS (purchased from Millipore) (10 nM), polyE4Y (1 mg/mL), MgCl2 (10 mM), pyruvate kinase (4 units), lactate dehydrogenase (0.7 units), phosphoenol pyruvate (1 mM), NADH (0.28 mM) and ATP (500 μM) in 90 mM Tris buffer containing 0.2% octyl-glucoside and 1% DMSO, pH 7.5. The inhibition reaction was started by mixing serial diluted test compound with the above reaction mixture. The absorption at 340 nm was monitored continuously for 4 hours at 30° C. on Synergy 2 plate reader. The reaction rate was calculated using the 3 to 4 h time frame. Percent inhibition was obtained by comparison of reaction rate with that of a control (i.e. in the absence of test compound). IC50 values were calculated from a series of percent inhibition values determined at a range of inhibitor concentrations using software routines as implemented in the GraphPad Prism software package.

[2] = biological target: T2, unphosphorylated c-KIT kinase (uKIT, Seq. ID no. 2) (Homo sapiens, UniProt P10721); experiment: uKit kinase assay (pyruvate kinase/lactate dehydrogenase coupled); format: biochemical; conditions: ATP 2000 μM
T2 construct: uKit with N-terminal GST fusion used for
T2 sequence (P10721 with tags, fused parts or gaps): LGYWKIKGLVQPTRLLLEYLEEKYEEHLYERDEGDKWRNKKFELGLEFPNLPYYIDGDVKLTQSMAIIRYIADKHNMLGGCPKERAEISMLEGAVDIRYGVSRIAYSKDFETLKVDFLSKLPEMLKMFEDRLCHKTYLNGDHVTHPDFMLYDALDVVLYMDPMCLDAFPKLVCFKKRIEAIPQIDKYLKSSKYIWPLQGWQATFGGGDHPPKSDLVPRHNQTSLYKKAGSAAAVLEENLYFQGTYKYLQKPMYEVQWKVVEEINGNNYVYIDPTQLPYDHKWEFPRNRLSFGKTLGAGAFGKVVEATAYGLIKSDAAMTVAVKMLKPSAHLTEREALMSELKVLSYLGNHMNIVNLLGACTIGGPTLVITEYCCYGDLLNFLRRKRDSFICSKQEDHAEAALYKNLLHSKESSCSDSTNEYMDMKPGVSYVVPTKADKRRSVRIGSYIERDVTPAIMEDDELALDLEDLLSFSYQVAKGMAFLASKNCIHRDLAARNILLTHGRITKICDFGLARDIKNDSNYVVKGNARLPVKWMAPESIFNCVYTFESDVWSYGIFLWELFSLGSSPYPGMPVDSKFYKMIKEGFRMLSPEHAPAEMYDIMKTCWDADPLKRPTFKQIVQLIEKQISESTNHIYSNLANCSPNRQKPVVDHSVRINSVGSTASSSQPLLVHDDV
Protocol: In this assay, the oxidation of NADH (thus the decrease at A340 nm) was continuously monitored spectrophometrically. […] The inhibition reaction was started by mixing serial diluted test compound with the above reaction mixture. The absorption at 340 nm was monitored continuously for 4 hours at 30° C. on Synergy 2 plate reader (BioTech).

[3] = test system: osteoclast precursors; experiment: Osteoclast tartrate-resistant acid phosphatase assay; format: cell-based; conditions: Osteoclast; 7-14 days, RANKL and M-CSF
[4] = test system: PC-3 M-luc cells; experiment: PC-3 peritibial implant model of cancer bone metastasis; format: in vivo, mouse; conditions: oral gavage twice daily; score 0-4; vehicle-treated animals score 4
Excerpt: PC-3 Peritibial Implant Model of Cancer Bone Metastasis To evaluate in vivo anti-cancer activity of compounds of formula I, the PC-3 M-luc peritibial injection model of bone invasiveness model was employed. Briefly, PC-3 M-luc cells were obtained from Xenogen Corporation (Caliper Life Sciences) and expanded using MEM media modified with L-Glutamine (Cell Gro® #10-045-CV) supplemented with 10% fetal bovine serum, 1% penicillin-streptomycin-glutamine, 1% non-essential amino acids, and 1% MEM vitamins in 5% CO2 atmosphere at 37° C. Six to 7 week old male nude mice (Crl:NU-Foxn1nu) were obtained from Charles River Laboratories. Test mice were implanted peritibially on Day 0 with 1×10^6 cells/mouse (0.1 mL) using an insulin syringe with a fixed 28-gauge needle. The needle was inserted at the ankle between the tibia and fibula until the bevel of the needle reaches approximately half way between the knee and ankle Treatments began on Day 0. Animals were dosed by oral gavage twice daily for the study duration. All procedures carried out in this experiment were conducted in compliance with all the laws, regulations and guidelines of the National Institutes of Health (NIH). […] Lesions in the right hind limb were scored with values of 0, 1, 2, 3, or 4 based on a qualitative assessment of lesion size as defined by: 0: Normal Bone 1: Minimal lesions. […]

[5] = test system: U251-luc human glioma carcinoma; experiment: U251 intra-cerebro-ventricular implant in mice with fractionated head radiation; format: in vivo, mouse; conditions: 30 mg/kg twice daily, 10 days post irradiation, compared to vehicle treated control
Protocol: U251 Intra-Cerebro-Ventricular Implant in Mice To evaluate in vivo anti-cancer activity compounds of formula I in combination with fractionated, localized head radiation, an orthotopic U251-luc (Luc) human glioma carcinoma model in female outbred nu/nu mice was employed. Briefly, U251 cells were obtained from the ATCC and altered to be luciferase expressing. They were grown in RPMI 1640 Media supplemented with 10% FBS and 1% PSG. The growth environment was maintained in an incubator with a 5% CO2 atmosphere at 37° C. Female Harlan Nude mice (Hsd:AthymicNude-Fox1nu) 8-9 weeks old were used in this study. Test animals were implanted intracranially with U251-luc (LucmCherry) cells. Briefly, animals were injected subcutaneously with 5 mg/kg carprofen and anesthetized using 2% isoflurane in air. The animals were then secured in a stereotaxic frame (ASIinstruments, Inc.) and a hole drilled 2 mm right lateral, 1 mm anterior to the coronal suture. The cell suspension (stored on wet ice) was mixed thoroughly and drawn up into a 50 μL syringe. The syringe needle was centered over the burr hole and lowered 3 mm into the brain and retracted 1 mm to form a “reservoir” for the deposition of the cell suspension. […] Images were analyzed using Living Image (Xenogen, Alameda, Calif.) software. The BLI signal in the brain was calculated with a fixed area ROI to estimate the tumor burden. […]

IC50 [1]: < 10 nM | IC50 [2]: 100 to 1000 nM | IC50 [3]: < 10 nM
Compound: CN1CCN(C(=O)Nc2cc(Oc3ccc(NC(=O)NC(=O)C(C)(C)C)nc3)ccn2)CC1 [Example 45, 4-methyl-N-(4-((6-(3-pivaloylureido)pyridin-3-yl)oxy)pyridin-2-yl)piperazine-1-carboxamide]
lesion score [4]: 3 | reduction in tumor re-growth [5]: 80%
